By melting point is commonly meant the temperature, or range, at which the solid turns liquid.

Consider 29 compounds from patent publication US6635635B2, “Benzothiadiazine compounds” (Les Laboratoires Servier, priority 2000, dated 2003).

One data set has as its system AMPA receptor. Briefly: Study of excitatory fluxes induced by AMPA in Xenopus oocytes (2-electrode voltage-clamp). Type of data set: cell-based. Particulars: Xenopus oocytes injected with poly(A+) mRNA from rat cerebral cortex; AMPA 10 μM; 20-24° C. How it is done: Study of Excitatory Fluxes Induced by AMPA in Xenopus oocytes
mRNAs are prepared from cerebral cortex of male Wistar rat by the guanidium thiocyanate/phenol/chloroform method. The poly (A^+) mRNAs are isolated by chromatography on oligo-dT cellulose and injected with 50 ng per oocyte. The oocytes are left for 2 to 3 days' incubation at 18° C. to enable expression of the receptors and are then stored at 8-10° C.
Electrophysiological recording is carried out in a Plexiglass® chamber at 20-24° C. in an OR2 medium (J. Exp. Zool., 1973, 184, 321-334) by the 2-electrode “voltage-clamp” method, with a 3rd electrode being placed in the bath to serve as reference.
All the compounds are administered via the incubation medium and the electric current is measured at the end of the period of administration. AMPA is used in a concentration of 10 μM. For each compound studied, there is determined the concentration that doubles (EC2X) or quintuples (EC5X) the intensity of the flux induced by AMPA alone (5 to 50 nA).
Take `CC(=O)Oc1ccc2c(c1)S(=O)(=O)NC1CCCN21` (single isomer, unassigned) [Ex. 8, 5,5-Dioxo-2,3,3a,4-tetrahydro-1H-pyrrolo[2,1-c][1,2,4]benzothiadiazin-7-yl acetate, α isomer dextro]: the “EC2X (concentration that doubles the intensity of the flux induced by AMPA alone)” value (shortened to “EC2X”) was 20 µM.
Regarding `CC(=O)Oc1ccc2c(c1)S(=O)(=O)NC1CCCN21` (single isomer, unassigned) [Ex. 9, 5,5-Dioxo-2,3,3a,4-tetrahydro-1H-pyrrolo[2,1-c][1,2,4]benzothiadiazin-7-yl acetate, β isomer levo], the “EC2X” value is 296 µM.
As to `O=S1(=O)NC2CCCN2c2ccc(O)cc21` (stereo not drawn) [Ex. 1, 5,5-Dioxo-2,3,3a,4-tetrahydro-1H-pyrrolo[2,1-c][1,2,4]benzothiadiazin-7-ol], the “EC2X” value was found to be 12 µM.
For the compound `O=S1(=O)NC2CCCN2c2cc(F)c(O)cc21` (stereo not drawn) [Ex. 4, 5,5-Dioxo-8-fluoro-2,3,3a,4-tetrahydro-1H-pyrrolo[2,1-c][1,2,4]-benzothiadiazin-7-ol], the “EC2X” value is 35 µM.
For the compound `CC(=O)Oc1ccc2c(c1)S(=O)(=O)NC1CCCN21` (stereo not drawn) [Ex. 7, 5,5-Dioxo-2,3,3a,4-tetrahydro-1H-pyrrolo[2,1c][1,2,4]benzothiadiazin-7-yl acetate], the “EC2X” value was found to be 34 µM.
For `CC(C)(C)C(=O)Oc1ccc2c(c1)S(=O)(=O)NC1CCCN21` (stereo not drawn) [Ex. 10, 5,5-Dioxo-2,3,3a,4-tetrahydro-1H-pyrrolo[2,1-c][1,2,4]benzothiadiazin-7-yl pivalate], the “EC2X” value amounted to 14 µM.
In the case of `O=C(Oc1ccc2c(c1)S(=O)(=O)NC1CCCN21)c1ccccc1` (stereo not drawn) [Ex. 11, 5,5-Dioxo-2,3,3a,4-tetrahydro-1H-pyrrolo[2,1-c][1,2,4]benzothiadiazin-7-yl benzoate], the “EC2X” value was determined as 5 µM.
Turning to `Cc1ccc(C(=O)Oc2ccc3c(c2)S(=O)(=O)NC2CCCN32)cc1` (stereo not drawn) [Ex. 28, 5,5-Dioxo-2,3,3a,4-tetrahydro-1H-pyrrolo[2,1-c][1,2,4]-benzothiadiazin-7-yl 4-methylbenzoate], the “EC2X” value turned out to be 3.6 µM.
In the case of `O=C(Oc1ccc2c(c1)S(=O)(=O)NC1CCCN21)c1cccs1` (stereo not drawn) [Ex. 34, 5,5-Dioxo-2,3,3a,4-tetrahydro-1H-pyrrolo[2,1-c][1,2,4]-benzothiadiazin-7-yl 2-thiophenecarboxylate], the “EC2X” value came out at 1.3 µM.
Consider `O=C(Oc1ccc2c(c1)S(=O)(=O)NC1CCCN21)c1ccco1` (stereo not drawn) [Ex. 36, 5,5-Dioxo-2,3,3a,4-tetrahydro-1H-pyrrolo[2,1-c][1,2,4]-benzothiadiazin-7-yl 2-furancarboxylate], for which the “EC2X” value worked out at 2.0 µM.
Consider `O=C(Oc1ccc2c(c1)S(=O)(=O)NC1CCCN21)c1cccnc1` (stereo not drawn) [Ex. 37, 5,5-Dioxo-2,3,3a,4-tetrahydro-1H-pyrrolo[2,1-c][1,2,4]-benzothiadiazin-7-yl nicotinate], for which the “EC2X” value is 4.0 µM.

Test system in the next data set: not given
Assay: not given
Conditions: not given
`O=C(Cc1ccccc1)Oc1ccc2c(c1)S(=O)(=O)NC1CCCN21` (stereo not drawn) gave a melting point of 169 to 171 °C.
The compound `Cl.O=C(Oc1ccc2c(c1)S(=O)(=O)NC1CCCN21)c1ccncc1` (stereo not drawn) had a melting point of 243 to 247 °C.
On the same count and under the same terms, the figure for `Cl.O=C(Oc1ccc2c(c1)S(=O)(=O)NC1CCCN21)c1ccccn1` (stereo not drawn) is 227 to 230 °C; for `Cc1ccc(C(=O)Oc2ccc3c(c2)S(=O)(=O)NC2CCCN32)cc1` (stereo not drawn) [Ex. 28, 5,5-Dioxo-2,3,3a,4-tetrahydro-1H-pyrrolo[2,1-c][1,2,4]-benzothiadiazin-7-yl 4-methylbenzoate] it is 198 to 200 °C; for `O=C(Oc1ccc2c(c1)S(=O)(=O)NC1CCCN21)c1cccs1` (stereo not drawn) [Ex. 34, 5,5-Dioxo-2,3,3a,4-tetrahydro-1H-pyrrolo[2,1-c][1,2,4]-benzothiadiazin-7-yl 2-thiophenecarboxylate] it is 212 to 214 °C.
Take `O=C(Oc1ccc2c(c1)S(=O)(=O)NC1CCCN21)c1ccco1` (stereo not drawn) [Ex. 36, 5,5-Dioxo-2,3,3a,4-tetrahydro-1H-pyrrolo[2,1-c][1,2,4]-benzothiadiazin-7-yl 2-furancarboxylate]: the melting point is 205 to 208 °C.
`O=C(Oc1ccc2c(c1)S(=O)(=O)NC1CCCN21)c1cccnc1` (stereo not drawn) [Ex. 37, 5,5-Dioxo-2,3,3a,4-tetrahydro-1H-pyrrolo[2,1-c][1,2,4]-benzothiadiazin-7-yl nicotinate] displayed a melting point of 227 to 230 °C.
`O=C(Oc1ccc2c(c1)S(=O)(=O)NC1CCCN21)C1CCCCC1` (stereo not drawn) [Example 14, 5,5-Dioxo-2,3,3a,4-tetrahydro-1H-pyrrolo[2,1-c][1,2,4]-benzothiadiazin-7-yl cyclohexanecarboxylate]: the melting point turned out to be 157 °C.
Regarding `O=C(Oc1ccc2c(c1)S(=O)(=O)NC1CCCN21)C1CCCC1` (stereo not drawn) [Example 16, 5,5-Dioxo-2,3,3a,4-tetrahydro-1H-pyrrolo[2,1-c][1,2,4]-benzothiadiazin-7-yl cyclopentanecarboxylate], the melting point fell in the range of 148 to 150 °C.
For `O=C(Oc1ccc2c(c1)S(=O)(=O)NC1CCCN21)C1CCC1` (stereo not drawn) [Example 17, 5,5-Dioxo-2,3,3a,4-tetrahydro-1H-pyrrolo[2,1-c][1,2,4]-benzothiadiazin-7-yl cyclobutanecarboxylate], the melting point lay within 166 to 170 °C.
In the case of `O=C(Oc1ccc2c(c1)S(=O)(=O)NC1CCCN21)C1CC1` (stereo not drawn) [Example 18, 5,5-Dioxo-2,3,3a,4-tetrahydro-1H-pyrrolo[2,1-c][1,2,4]-benzothiadiazin-7-yl cyclopropanecarboxylate], the melting point is 169 to 171 °C.
Same read-out and setting: for `O=C(Oc1ccc2c(c1)S(=O)(=O)NC1CCCN21)c1ccc2ccccc2c1` (stereo not drawn) [Example 20, 5,5-Dioxo-2,3,3a,4-tetrahydro-1H-pyrrolo[2,1-c][1,2,4]-benzothiadiazin-7-yl 2-naphthalenecarboxylate] the value was 207 to 210 °C.
`O=C(Oc1ccc2c(c1)S(=O)(=O)NC1CCCN21)c1ccc(-c2ccccc2)cc1` (stereo not drawn) [Example 21, 5,5-Dioxo-2,3,3a,4-tetrahydro-1H-pyrrolo[2,1-c][1,2,4]-benzothiadiazin-7-yl [1,1′-biphenyl]-4-carboxylate] gave a melting point of 249 to 253 °C.
On the same count and under the same terms, the figure for `O=C(C=Cc1ccccc1)Oc1ccc2c(c1)S(=O)(=O)NC1CCCN21` (stereo not drawn) [Example 23, 5,5-Dioxo-2,3,3a,4-tetrahydro-1H-pyrrolo[2,1-c][1,2,4]-benzothiadiazin-7-yl 3-phenyl-2-propenoate] is 193 to 198 °C.
Compound `COc1ccc(C(=O)Oc2ccc3c(c2)S(=O)(=O)NC2CCCN32)cc1` (stereo not drawn) [Example 24, 5,5-Dioxo-2,3,3a,4-tetrahydro-1H-pyrrolo[2,1-c][1,2,4]-benzothiadiazin-7-yl 4-methoxybenzoate] had a melting point of 216 to 221 °C.
Turning to `O=C(Oc1ccc2c(c1)S(=O)(=O)NC1CCCN21)c1cccc(Cl)c1` (stereo not drawn) [Example 26, 5,5-Dioxo-2,3,3a,4-tetrahydro-1H-pyrrolo[2,1-c][1,2,4]-benzothiadiazin-7-yl 3-chlorobenzoate], the melting point lay within 243 to 247 °C.
`N#Cc1ccc(C(=O)Oc2ccc3c(c2)S(=O)(=O)NC2CCCN32)cc1` (stereo not drawn) [Example 27, 5,5-Dioxo-2,3,3a,4-tetrahydro-1H-pyrrolo[2,1-c][1,2,4]-benzothiadiazin-7-yl 4-cyanobenzoate] came in with a melting point of 260 to 264 °C.
As for `Cc1cccc(C(=O)Oc2ccc3c(c2)S(=O)(=O)NC2CCCN32)c1` (stereo not drawn) [Example 29, 5,5-Dioxo-2,3,3a,4-tetrahydro-1H-pyrrolo[2,1-c][1,2,4]-benzothiadiazin-7-yl 3-methylbenzoate], the melting point fell in the range of 214 to 218 °C.
Still for that read-out and setting: the figure for `Cc1ccccc1C(=O)Oc1ccc2c(c1)S(=O)(=O)NC1CCCN21` (stereo not drawn) [Example 30, 5,5-Dioxo-2,3,3a,4-tetrahydro-1H-pyrrolo[2,1-c][1,2,4]-benzothiadiazin-7-yl 2-methylbenzoate] is 218 to 221 °C; for `N#Cc1cccc(C(=O)Oc2ccc3c(c2)S(=O)(=O)NC2CCCN32)c1` (stereo not drawn) [Example 31, 5,5-Dioxo-2,3,3a,4-tetrahydro-1H-pyrrolo[2,1-c][1,2,4]-benzothiadiazin-7-yl 3-cyanobenzoate] it is 203 to 206 °C.
For `O=C(Oc1ccc2c(c1)S(=O)(=O)NC1CCCN21)c1ccsc1` (stereo not drawn) [Example 33, 5,5-Dioxo-2,3,3a,4-tetrahydro-1H-pyrrolo[2,1-c][1,2,4]-benzothiadiazin-7-yl 3-thiophenecarboxylate], the melting point was 208 to 212 °C.
The compound `O=C(Oc1ccc2c(c1)S(=O)(=O)NC1CCCN21)c1ccoc1` (stereo not drawn) [Example 35, 5,5-Dioxo-2,3,3a,4-tetrahydro-1H-pyrrolo[2,1-c][1,2,4]-benzothiadiazin-7-yl 3-furancarboxylate] registered a melting point of 185 to 187 °C.
